Key:
[1] = target: T1, biotinylated MBL (Mannan Binding Lectin) (Homo sapiens, UniProt P11226); experiment: ELLA (Enzyme Linked Lectin Assay), glucose inhibition of MBL binding to coated antigen, Examples A8/A8a
Procedure: Biotinylated MBL was prepared as follows. Biotin-NHS (20 µl, 7 mg/ml in DMSO, -10-15 eq. per MBL monomer) was added to a solution of MBL (3 ml, 0.53 mg) in PBS (3 mL). The solution was gently stirred for 2 h, then transferred to a dialysis tube (MWCO 10-12K) and dialysed against TBS (2 × 1 L) over the course of 24 h. The resulting biotinylated MBL (0.2 mg/ml) in TBS was used without further purification.
The wells were then washed (2x200 µl PBS). ConA-HRP 1% (w/v)(100 µl) in PBS was added and incubated for 1 h. Plates were then emptied and washed (3x200 µl PBS). […] The wells were then washed (2x200 µl TBS). […] Plates were then emptied and washed (3x200 µl TBS).

[2] = target: T1, biotinylated MBL (Mannan Binding Lectin); experiment: ELLA (Enzyme Linked Lectin Assay), glucose inhibition of MBL binding to coated antigen, Examples C3/C5; settings: glucose as inhibitor, 1.25 mM CaCl2, value only valid for this particular assay
Procedure: The wells were then washed (2 x 200 µl TBS).
Plates were then emptied and washed (3 x 200 µl TBS). […] The results are shown in the graphs in Fig. 1. High absorptions correspond to binding of MBL to the ligand. Baseline absorption corresponds to no binding of MBL to the ligand. […] Therefore, in an optimization step (Example C4) a range of mannose co-polymers having mannose monomer unit contents within the range of 30 % to 50 % were synthesized.
An ELLA assay was carried out as described in Example C3. […] From the inhibition curves, it is possible to calculate an IC50 value for aminodextran and the optimized ligand (Table 6). (The IC50 value is only valid for this particular assay.) TABLE 6

T1 sequence (P11226 21-248): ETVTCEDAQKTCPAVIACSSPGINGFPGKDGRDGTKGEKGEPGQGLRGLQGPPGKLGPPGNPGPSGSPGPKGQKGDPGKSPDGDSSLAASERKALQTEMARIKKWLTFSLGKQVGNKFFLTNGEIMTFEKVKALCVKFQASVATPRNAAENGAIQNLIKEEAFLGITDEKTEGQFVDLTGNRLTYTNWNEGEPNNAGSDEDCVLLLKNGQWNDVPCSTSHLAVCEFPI

SMILES: OC[C@H]1OC(O)[C@H](O)[C@@H](O)[C@@H]1O (stereo partly drawn) [glucose]
- IC50 ([1]; coated antigen: AmDex 150K (aminodextran), dilutions of glucose 100 mM to 0 mM, read-out: MBL affinity (IC50) or Abs(0 mM Glc)): 9.7 mM
- IC50 ([1]; coated antigen: Polymer of Example A4a, dilutions of glucose 100 mM to 0 mM, read-out: MBL affinity (IC50) or Abs (0 mM Glc)): 50 to 80 mM
- IC50 ([1]; glucose inhibiting MBL binding to plate coated with 40 mol% mannose polymer of Example A4 (Example A8), TBS, 1.25 mM CaCl2, pH 7.4, read-out: IC50): 16.8 mM
- IC50 ([1]; glucose inhibiting MBL binding to plate coated with 80 mol% mannose polymer of Example A4a, TBS, 1.25 mM CaCl2, pH 7.4, read-out: IC50): 50 to 80 mM
- IC50 ([2]; coated antigen: 35 mol% Man Copolymer): 13 mM
- IC50 ([2]; coated antigen: Aminodextran): 23 mM
